Reference: patent US11571421B2, “GABAA positive allosteric modulator compounds for treatment of itch and/or dermatitis” (NeuroCycle Therapeutics, Inc., priority 2018, dated 2023)
Several values for one entry are separate records, joined by “and”; a condition that tells them apart may be missing. Equal values may be shown once.

Tested on: Chloroquine (CQ)-Induced Itch Model in Male C57BL/6 Mice
Experiment: Chloroquine Induced Itch Model, AZD7325 (Example 2)
Type: in vivo
Experimental: Other GABAA positive allosteric modulators are predicted to have similar effects on pruritic conditions and dermatitis as PF-06372865. […] In this study, the efficacy of AZD7325 was evaluated in the Chloroquine Induced Itch Model in Male C57BL/6 Mice. […]
AZD7325 was weighed into a clean glass container. A 5% 2-hydroxypropyl-β-cyclodextrin was added and the resulting mixture was mixed well using mild vortexing and sonicated for 15-20 minutes to provide a homogeneous suspension.
21 mg of chloroquine phosphate was weighed in a clean glass container. 5.2 mL PBS was added, and the resulting mixture was mixed well using mild vortexing to form the desired strength solution.
The right-side cheek area of all the animals was shaved with animal clippers 1 day prior to the experiment. Animals were randomized into different treatment groups based on body weight to avoid variability in weights across groups one day prior to experiment. Reference formulations and chloroquine phosphate solution were prepared on the day of the experiment.
Animals were dosed per oral with respective treatment group using a dose volume of 10 ml/kg. Times of dosing were recorded. Immediately after compound treatment, animals were kept in a empty transparent chamber (23 cm length×17 cm width) for acclimatization and observation.
Ninety (90) minutes post compound dosing, 50-μl of chloroquine phosphate solution (a 200-μg dose) was injected intracutaneously into the animal's right cheek. Animals were returned to the same chamber for observation. Animals were observed by an observer blind to the treatment group for a period of 30 minutes post chloroquine injection. Total number of bouts of scratching directed at the ipsilateral cheek were recorded for 30 minutes.

[1] = 0.3 mg/kg PO, individual animals
[2] = 10 mg/kg PO, individual animals
[3] = 30 mg/kg PO, individual animals

CCCNC(=O)c1nnc2c(-c3c(F)cccc3OC)cccc2c1N [AZD7325]
Scratching bouts (Nos.) In 30 min, 0-5 min (0.3 mg/kg PO, MEAN, N=6): 1.17 Nos. | Scratching bouts (Nos.) In 30 min, 5-10 min (0.3 mg/kg PO, MEAN, N=6): 11.00 Nos. | Scratching bouts (Nos.) In 30 min, 10-15 min (0.3 mg/kg PO, MEAN, N=6): 17.17 Nos. | Scratching bouts (Nos.) In 30 min, 15-20 min (0.3 mg/kg PO, MEAN, N=6): 24.00 Nos. | Scratching bouts (Nos.) In 30 min, 20-25min (0.3 mg/kg PO, MEAN, N=6): 16.83 Nos. | Scratching bouts (Nos.) In 30 min, 25-30 min (0.3 mg/kg PO, MEAN, N=6): 24.00 Nos. | Total Scratching bouts (0.3 mg/kg PO, MEAN, N=6): 94.17 (Nos.)/30 min | Scratching bouts (Nos.) In 30 min, 0-5 min [1]: 0 Nos. (4×) and 5 Nos. and 2 Nos. | Scratching bouts (Nos.) In 30 min, 5-10 min [1]: 17 Nos. and 0 Nos. (2×) and 9 Nos. and 24 Nos. and 16 Nos. | Scratching bouts (Nos.) In 30 min, 10-15 min [1]: 22 Nos. and 25 Nos. and 10 Nos. and 15 Nos. and 1 Nos. and 30 Nos. | Scratching bouts (Nos.) In 30 min, 15-20 min [1]: 45 Nos. and 30 Nos. and 0 Nos. and 14 Nos. and 28 Nos. and 27 Nos. | Scratching bouts (Nos.) In 30 min, 20-25min [1]: 11 Nos. and 28 Nos. and 18 Nos. and 29 Nos. and 15 Nos. and 0 Nos. | Scratching bouts (Nos.) In 30 min, 25-30 min [1]: 21 Nos. and 15 Nos. (2×) and 31 Nos. and 23 Nos. and 39 Nos. | Total Scratching bouts [1]: 116 (Nos.)/30 min and 98 (Nos.)/30 min and 73 (Nos.)/30 min and 105 (Nos.)/30 min and 61 (Nos.)/30 min and 112 (Nos.)/30 min | Scratching bouts (Nos.) In 30 min, 0-5 min (1 mg/kg PO, MEAN, N=6): 2.00 Nos. | Scratching bouts (Nos.) In 30 min, 5-10 min (1 mg/kg PO, MEAN, N=6): 10.33 Nos. | Scratching bouts (Nos.) In 30 min, 10-15 min (1 mg/kg PO, MEAN, N=6): 15.67 Nos. | Scratching bouts (Nos.) In 30 min, 15-20 min (1 mg/kg PO, MEAN, N=6): 22.33 Nos. | Scratching bouts (Nos.) In 30 min, 20-25min (1 mg/kg PO, MEAN, N=6): 19.17 Nos. | Scratching bouts (Nos.) In 30 min, 25-30 min (1 mg/kg PO, MEAN, N=6): 14.33 Nos. | Total Scratching bouts (1 mg/kg PO, MEAN, N=6): 83.83 (Nos.)/30 min | Scratching bouts (Nos.) In 30 min, 0-5 min (1 mg/kg PO, individual animals): 0 Nos. (2×) and 2 Nos. and 3 Nos. and 6 Nos. and 1 Nos. | Scratching bouts (Nos.) In 30 min, 5-10 min (1 mg/kg PO, individual animals): 1 Nos. and 7 Nos. and 18 Nos. and 36 Nos. and 0 Nos. (2×) | Scratching bouts (Nos.) In 30 min, 10-15 min (1 mg/kg PO, individual animals): 0 Nos. and 15 Nos. and 26 Nos. and 8 Nos. and 21 Nos. and 24 Nos. | Scratching bouts (Nos.) In 30 min, 15-20 min (1 mg/kg PO, individual animals): 30 Nos. and 24 Nos. and 14 Nos. and 7 Nos. and 44 Nos. and 15 Nos. | Scratching bouts (Nos.) In 30 min, 20-25min (1 mg/kg PO, individual animals): 48 Nos. and 38 Nos. and 7 Nos. and 10 Nos. and 12 Nos. and 0 Nos. | Scratching bouts (Nos.) In 30 min, 25-30 min (1 mg/kg PO, individual animals): 0 Nos. and 9 Nos. and 17 Nos. and 4 Nos. and 30 Nos. and 26 Nos. | Total Scratching bouts (1 mg/kg PO, individual animals): 79 (Nos.)/30 min and 95 (Nos.)/30 min and 85 (Nos.)/30 min and 65 (Nos.)/30 min and 113 (Nos.)/30 min and 66 (Nos.)/30 min | Scratching bouts (Nos.) In 30 min, 0-5 min (3 mg/kg PO, MEAN, N=6): 1.50 Nos. | Scratching bouts (Nos.) In 30 min, 5-10 min (3 mg/kg PO, MEAN, N=6): 7.50 Nos. | Scratching bouts (Nos.) In 30 min, 10-15 min (3 mg/kg PO, MEAN, N=6): 16.33 Nos. | Scratching bouts (Nos.) In 30 min, 15-20 min (3 mg/kg PO, MEAN, N=6): 17.17 Nos. | Scratching bouts (Nos.) In 30 min, 20-25min (3 mg/kg PO, MEAN, N=6): 13.33 Nos. | Scratching bouts (Nos.) In 30 min, 25-30 min (3 mg/kg PO, MEAN, N=6): 11.33 Nos. | Total Scratching bouts (3 mg/kg PO, MEAN, N=6): 67.17 (Nos.)/30 min | Scratching bouts (Nos.) In 30 min, 0-5 min (3 mg/kg PO, individual animals): 3 Nos. and 0 Nos. (4×) and 6 Nos. | Scratching bouts (Nos.) In 30 min, 5-10 min (3 mg/kg PO, individual animals): 0 Nos. (3×) and 31 Nos. and 12 Nos. and 2 Nos. | Scratching bouts (Nos.) In 30 min, 10-15 min (3 mg/kg PO, individual animals): 20 Nos. and 22 Nos. and 17 Nos. and 9 Nos. and 14 Nos. and 16 Nos. | Scratching bouts (Nos.) In 30 min, 15-20 min (3 mg/kg PO, individual animals): 18 Nos. and 5 Nos. and 35 Nos. and 26 Nos. and 19 Nos. and 0 Nos. | Scratching bouts (Nos.) In 30 min, 20-25min (3 mg/kg PO, individual animals): 2 Nos. and 32 Nos. and 22 Nos. and 6 Nos. and 10 Nos. and 8 Nos. | Scratching bouts (Nos.) In 30 min, 25-30 min (3 mg/kg PO, individual animals): 8 Nos. (2×) and 19 Nos. and 11 Nos. and 20 Nos. and 2 Nos. | Total Scratching bouts (3 mg/kg PO, individual animals): 51 (Nos.)/30 min and 78 (Nos.)/30 min and 119 (Nos.)/30 min and 64 (Nos.)/30 min and 63 (Nos.)/30 min and 28 (Nos.)/30 min | Scratching bouts (Nos.) In 30 min, 0-5 min (10 mg/kg PO, MEAN, N=6): 0.50 Nos. | Scratching bouts (Nos.) In 30 min, 5-10 min (10 mg/kg PO, MEAN, N=6): 6.17 Nos. | Scratching bouts (Nos.) In 30 min, 10-15 min (10 mg/kg PO, MEAN, N=6): 15.17 Nos. | Scratching bouts (Nos.) In 30 min, 15-20 min (10 mg/kg PO, MEAN, N=6): 12.50 Nos. | Scratching bouts (Nos.) In 30 min, 20-25min (10 mg/kg PO, MEAN, N=6): 13.67 Nos. | Scratching bouts (Nos.) In 30 min, 25-30 min (10 mg/kg PO, MEAN, N=6): 15.17 Nos. | Total Scratching bouts (10 mg/kg PO, MEAN, N=6): 63.17 (Nos.)/30 min | Scratching bouts (Nos.) In 30 min, 0-5 min [2]: 0 Nos. (4×) and 1 Nos. and 2 Nos. | Scratching bouts (Nos.) In 30 min, 5-10 min [2]: 7 Nos. (2×) and 0 Nos. (2×) and 22 Nos. and 1 Nos. | Scratching bouts (Nos.) In 30 min, 10-15 min [2]: 41 Nos. and 11 Nos. and 7 Nos. and 19 Nos. and 0 Nos. and 13 Nos. | Scratching bouts (Nos.) In 30 min, 15-20 min [2]: 9 Nos. and 0 Nos. (2×) and 22 Nos. and 25 Nos. and 19 Nos. | Scratching bouts (Nos.) In 30 min, 20-25min [2]: 0 Nos. (2×) and 10 Nos. and 20 Nos. and 19 Nos. and 33 Nos. | Scratching bouts (Nos.) In 30 min, 25-30 min [2]: 23 Nos. and 37 Nos. and 24 Nos. and 0 Nos. (2×) and 7 Nos. | Total Scratching bouts [2]: 80 (Nos.)/30 min and 65 (Nos.)/30 min and 73 (Nos.)/30 min and 85 (Nos.)/30 min and 61 (Nos.)/30 min and 15 (Nos.)/30 min | Scratching bouts (Nos.) In 30 min, 0-5 min (30 mg/kg PO, MEAN, N=6): 5.17 Nos. | Scratching bouts (Nos.) In 30 min, 5-10 min (30 mg/kg PO, MEAN, N=6): 11.67 Nos. | Scratching bouts (Nos.) In 30 min, 10-15 min (30 mg/kg PO, MEAN, N=6): 7.17 Nos. | Scratching bouts (Nos.) In 30 min, 15-20 min (30 mg/kg PO, MEAN, N=6): 18.33 Nos. | Scratching bouts (Nos.) In 30 min, 20-25min (30 mg/kg PO, MEAN, N=6): 6.17 Nos. | Scratching bouts (Nos.) In 30 min, 25-30 min (30 mg/kg PO, MEAN, N=6): 2.83 Nos. | Total Scratching bouts (30 mg/kg PO, MEAN, N=6): 51.33 (Nos.)/30 min | Scratching bouts (Nos.) In 30 min, 0-5 min [3]: 0 Nos. (3×) and 1 Nos. and 20 Nos. and 10 Nos. | Scratching bouts (Nos.) In 30 min, 5-10 min [3]: 9 Nos. and 15 Nos. and 0 Nos. (2×) and 1 Nos. and 45 Nos. | Scratching bouts (Nos.) In 30 min, 10-15 min [3]: 8 Nos. and 1 Nos. and 22 Nos. and 3 Nos. and 9 Nos. and 0 Nos. | Scratching bouts (Nos.) In 30 min, 15-20 min [3]: 29 Nos. and 0 Nos. and 11 Nos. and 10 Nos. and 47 Nos. and 13 Nos. | Scratching bouts (Nos.) In 30 min, 20-25min [3]: 5 Nos. and 0 Nos. (3×) and 16 Nos. (2×) | Scratching bouts (Nos.) In 30 min, 25-30 min [3]: 0 Nos. (4×) and 12 Nos. and 5 Nos. | Total Scratching bouts [3]: 51 (Nos.)/30 min and 29 (Nos.)/30 min and 69 (Nos.)/30 min and 18 (Nos.)/30 min and 57 (Nos.)/30 min and 84 (Nos.)/30 min | scratching bouts compared to vehicle treatment, significance (at 1, 3, 10 and 30 mg/kg doses): Statistically significant decrease | total number of scratching bouts, dose response (quantified for 30 minutes post CQ injection, 0.3-30 mg/kg PO): dose dependent decrease
